Results: patent US20250163074A1, “CDK Inhibitors And Their Use As Pharmaceuticals” (Prelude Therapeutics Incorporated, priority 2020, published 2025)
Like-named read-outs stand apart in the source and are kept apart here.

What was measured:
CDK6/Cyclin D1 = CDK6/Cyclin D1 (Homo sapiens (Human), UniProt Q00534); test: CDK6/CyclinD1 enzymatic activity assay (TR-FRET); type: biochemical; conditions: CDK6/Cyclin D1 1 nM, ATP 250 μM, read-out: CDK6_D1 IC50
Method: CDK6/CyclinD1 Enzymatic Activity Assay
(§1) The inhibitory activity of compounds was evaluated in vitro using TR-FRET assay with white 384-well low volume microplate (Greiner Bio-One). CDK6/Cyclin D1 catalyzed phosphorylation of peptide in the presence and absence of compounds was measured and used in IC50 determination. Recombinant protein complex CDK6/Cyclin D1, expressed from insect cell, was purchased from ProQinase. Testing compounds were dissolved in DMSO at 0.1 mM and tested in 9-dose IC50 mode. The reaction mixture was prepared by mixing CDK6/Cyclin D1 (1 nM final), ULight-4E-BP1 (100 nM final, Perkinelmer, TRF0128-D), and ATP (250 μM final) in assay buffer (20 mM of HEPES pH 7.4, 1 mM of EGTA, 0.05% BSA, 0.005% Tween 20, and 1 mM TCEP). The compound of interest in DMSO was added to each well in 3-fold serial dilution by dispenser (TECAN D300E). After 20 minutes preincubation at room temperature, 0.1 μL MgCl2 (10 mM final) was added to initiate the reaction. Following a 60 minutes incubation at 37° C., the reaction was stopped by addition of 2 μL of quenching buffer consisting of Lance detection buffer (Perkinelmer CR97-100C), 2 nM LANCE Ultra Europium-anti-P-4E-BP1 (Perkinelmer, TRF0216-D), 10 mM EDTA, and incubate at room temperature for additional 60 minutes in dark. The reaction signal was measured by Envision multimode plate reader (PerkinElmer, 2102-0010). IC50 values were determined by fitting the data to the standard 4 parameters with Hill Slope using GraphPad Prism software.

[1] = test system: MCF7 adenocarcinoma cell line; test: Cell proliferation studies in MCF7 cells (ATP-Lite); type: cell-based; conditions: 10 days incubation, cell viability by ATP-Lite luminescence, read-out: PROLIFERATION_CTG_MCF7 IC50
Method: Cell Proliferation Studies in MCF7 Cells
Cell proliferation studies were conducted in MCF7 adenocarcinoma cell line. Cells were maintained in DMEM (Corning, Catalog #: 10-013-CV) supplemented with 10% v/v FBS (Gibco, Catalog #: 26140-079), 1% v/v Penicillin Streptomycin (Gibco, Catalog #15140-122) Cells were seeded in 384-well plates at a density of 100 or 200 cells/well. Compounds dissolved in DMSO were plated in quadruplicate using a digital dispenser (D300E, Tecan) and tested on a 9-point 3-fold serial dilution. Cells were incubated for 10 days in a 37° C. active humidified incubator at 5% CO2. A media exchange and second compound addition were performed on day 5. Cell viability was measured using the ATP-Lite 1-Step Luminescence reagent (Perkin Elmer, Catalog #: 6016731) as per manufacturer's instructions. Luminescence signal was measured with a multimode plate reader (Envision 2105, Perkin Elmer). Raw data files were imported to Dotmatics Screening Ultra for IC50 analysis. Luminescence values were normalized to both background and DMSO controls to obtain a percentage of viable cells relative to DMSO vehicle control.

CDK4/Cyclin D1 = CDK4/Cyclin D1 (Homo sapiens (Human), UniProt P11802); test: CDK4/CyclinD1 enzymatic activity assay (TR-FRET); type: biochemical; conditions: CDK4/CyclinD1 1 nM, ATP 2 mM, read-out: CDK4_D1 IC50
Method: CDK4/CyclinD1 Enzymatic Activity Assay
as §1, with “Bio-One). CDK4/Cyclin” for “Bio-One). CDK6/Cyclin”, “was measured.” for “was measured and used in”, “complex CDK4/Cyclin” for “complex CDK6/Cyclin”, “mixing CDK4/CyclinD1” for “mixing CDK6/Cyclin D1”, “ATP (2 mM” for “ATP (250 μM”, “temperature,” for “temperature, 0.1 μL”

Sequence of CDK4/Cyclin D1 (P11802 whole entry): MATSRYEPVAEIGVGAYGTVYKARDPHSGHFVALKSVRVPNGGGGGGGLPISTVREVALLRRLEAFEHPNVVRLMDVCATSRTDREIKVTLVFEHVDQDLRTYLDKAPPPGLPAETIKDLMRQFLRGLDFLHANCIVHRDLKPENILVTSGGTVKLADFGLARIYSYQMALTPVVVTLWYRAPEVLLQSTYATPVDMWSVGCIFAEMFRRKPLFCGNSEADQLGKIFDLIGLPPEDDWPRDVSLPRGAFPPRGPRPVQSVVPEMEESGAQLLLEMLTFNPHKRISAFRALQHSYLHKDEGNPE
Sequence of CDK4/Cyclin D1 (P24385 whole entry partner): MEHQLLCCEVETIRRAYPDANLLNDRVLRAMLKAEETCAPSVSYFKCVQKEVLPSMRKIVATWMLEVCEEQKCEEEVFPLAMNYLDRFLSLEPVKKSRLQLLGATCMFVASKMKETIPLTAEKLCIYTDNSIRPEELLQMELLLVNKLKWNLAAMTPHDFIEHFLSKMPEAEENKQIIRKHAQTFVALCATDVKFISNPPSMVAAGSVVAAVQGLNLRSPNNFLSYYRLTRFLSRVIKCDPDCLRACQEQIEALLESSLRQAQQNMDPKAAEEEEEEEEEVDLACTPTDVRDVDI
Sequence of CDK6/Cyclin D1 (Q00534 whole entry): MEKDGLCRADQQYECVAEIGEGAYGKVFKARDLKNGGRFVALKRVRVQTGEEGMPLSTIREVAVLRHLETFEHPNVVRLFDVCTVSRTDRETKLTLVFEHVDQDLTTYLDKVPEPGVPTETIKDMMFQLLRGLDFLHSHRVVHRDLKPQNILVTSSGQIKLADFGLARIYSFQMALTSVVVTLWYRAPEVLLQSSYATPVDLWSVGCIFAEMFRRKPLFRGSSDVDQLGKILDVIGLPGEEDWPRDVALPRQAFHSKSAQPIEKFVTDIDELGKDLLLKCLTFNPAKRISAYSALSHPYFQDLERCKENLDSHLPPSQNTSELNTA
Sequence of CDK6/Cyclin D1 (P24385 whole entry partner): as the sequence (P24385 whole entry partner) above

Compound	IC50 (CDK6/Cyclin D1) [nM]	IC50 ([1]; Homo sapiens, 240 h) [nM]	IC50 (CDK4/Cyclin D1) [nM]	IC50 [1] [nM]
CN1CCC(c2ccc(Nc3ncc(F)c(-c4cc5c(s4)C4(CCCCC4)CN(C)C5=O)n3)nc2)CC1 [Example 5, 2′-(5-Fluoro-2-((5-(1-methylpiperidin-4-yl)pyridin-2-yl)amino)pyrimidin-4-yl)-5′-methyl-5′,6′-dihydro-4′H-spiro[cyclohexane-1,7′-thieno[3,2-c]pyridin]-4′-one]	20 to 200	≤ 20	≤ 20	
CN1CCC(c2ccc(Nc3ncc(F)c(-c4cc5c(s4)C4(CC4)N(C)C5=O)n3)nc2)CC1 [Example 8]	≤ 20		≤ 20	20 to 200
CN1CCC(c2ccc(Nc3ncc(F)c(-c4sc5c(c4Cl)C(=O)N(C)C54CC4)n3)nc2)CC1 [Example 9, 3′-chloro-2′-(5-Fluoro-2-((5-(1-methylpiperidin-4-yl)pyridin-2-yl)amino)pyrimidin-4-yl)-5′-methylspiro[cyclopropane-1,6′-thieno[2,3-c]pyrrol]-4′(5′H)-one]	≤ 20	20 to 200	≤ 20	
CN1CCC(c2ccc(Nc3ncc(F)c(-c4sc5c(c4C(F)(F)F)C(=O)N(C)C54CC4)n3)nc2)CC1 [Example 10, 2′-(5-Fluoro-2-((5-(1-methyl-piperidin-4-yl)pyridin-2-yl)amino)pyrimidin-4-yl)-5′-methyl-3′-(trifluoromethyl)spiro[cyclopropane-1,6′-thieno[2,3-c]pyrrol]-4′(5′H)-one]	≤ 20	20 to 200	≤ 20	
CCN1CCN(Cc2ccc(Nc3ncc(F)c(-c4sc5c(c4C)C(=O)N(C)C54CC4)n3)nc2)CC1 [Example 13, 2′-(2-((5-((4-Ethylpiperazin-1-yl)methyl)pyridin-2-yl)amino)-5-fluoropyrimidin-4-yl)-3′,5′-dimethylspiro[cyclopropane-1,6′-thieno[2,3-c]pyrrol]-4′(5′H)-one]	≤ 20	20 to 200	≤ 20	
CCN1CC2(C1)CN(c1ccc(Nc3ncc(F)c(-c4cc5c(s4)C4(CCCC4)N(CC)C5=O)n3)nc1)C2 [Example 21, 5′-Ethyl-2′-(2-((5-(6-ethyl-2,6-diazaspiro[3.3]heptan-2-yl)pyridin-2-yl)amino)-5-fluoropyrimidin-4-yl)spiro[cyclopentane-1,6′-thieno[2,3-c]pyrrol]-4′(5′H)-one]	≤ 20	20 to 200	≤ 20	
CCN1C(=O)c2cc(-c3nc(Nc4ccc(C5CCN(C)CC5)cn4)ncc3F)sc2C12CCCC2 [Example 22, 5′-Ethyl-2′-(5-fluoro-2-((5-(1-methylpiperidin-4-yl)pyridin-2-yl)amino)pyrimidin-4-yl)spiro[cyclopentane-1,6′-thieno[2,3-c]pyrrol]-4′(5′H)-one]	20 to 200	20 to 200	≤ 20	
CCN1CCC(c2ccc(Nc3ncc(F)c(-c4cc5c(s4)C4(CCCC4)N(C)C5=O)n3)nc2)CC1 [Example 23, 2′-(2-((5-(1-Ethylpiperidin-4-yl)pyridin-2-yl)amino)-5-fluoropyrimidin-4-yl)-5′-methylspiro[cyclopentane-1,6′-thieno[2,3-c]pyrrol]-4′(5′H)-one]	≤ 20	20 to 200	≤ 20	
CN1CCC(c2ccc(Nc3ncc(F)c(-c4sc5c(c4C(F)(F)F)C(=O)N(C)C54CCCC4)n3)nc2)CC1 [Example 26, 2′-(5-Fluoro-2-((5-(1-methylpiperidin-4-yl)pyridin-2-yl)amino)pyrimidin-4-yl)-5′-methyl-3′-(trifluoromethyl)spiro[cyclopentane-1,6′-thieno[2,3-c]pyrrol]-4′(5′H)-one]	≤ 20	≤ 20	≤ 20	
CN1CCC(c2ccc(Nc3ncc(F)c(-c4sc5c(c4Cl)C(=O)N(C)C54CCCC4)n3)nc2)CC1 [Example 27, 3′-Chloro-2′-(5-fluoro-2-((5-(1-methylpiperidin-4-yl)pyridin-2-yl)amino)pyrimidin-4-yl)-5′-methylspiro[cyclopentane-1,6′-thieno[2,3-c]pyrrol]-4′(5′H)-one]	≤ 20	≤ 20	≤ 20	
Cc1c(-c2nc(Nc3ccc(C4CCCN(C)C4)cn3)ncc2F)sc2c1C(=O)N(C)CC21CC1 (stereo not shown) [Example 30, 2′-(5-Fluoro-2-((5-(1-methyl-piperidin-3-yl)pyridin-2-yl)amino)pyrimidin-4-yl)-3′,5′-dimethyl-5′,6′-dihydro-4′H-spiro[cyclopropane-1,7′-thieno[3,2-c]pyridin]-4′-one]	≤ 20	20 to 200	≤ 20	
Cc1c(-c2nc(Nc3ccc(C4CCN(C5CCOC5)CC4)cn3)ncc2F)sc2c1C(=O)N(C)CC21CC1 (stereo not shown) [Example 32, 2′-(5-Fluoro-2-((5-(1-(tetrahydrofuran-3-yl)piperidin-4-yl)pyridin-2-yl)amino)pyrimidin-4-yl)-3′,5′-dimethyl-5′,6′-dihydro-4′H-spiro[cyclopropane-1,7′-thieno[3,2-c]pyridin]-4′-one]	≤ 20	20 to 200	≤ 20	
Cc1c(-c2nc(Nc3ccc(N4CC5(C4)CN(C(C)C)C5)cn3)ncc2F)sc2c1C(=O)N(C)CC21CC1 [Example 34, 2′-(5-Fluoro-2-((5-(6-isopropyl-2,6-diazaspiro[3.3]heptan-2-yl)pyridin-2-yl)amino)pyrimidin-4-yl)-3′,5′-dimethyl-5′,6′-dihydro-4′H-spiro[cyclopropane-1,7′-thieno[3,2-c]pyridin]-4′-one]	≤ 20	≤ 20	≤ 20	
Cc1c(-c2nc(Nc3ccc(N4CCC5(CC4)CN(C)C5)cn3)ncc2F)sc2c1C(=O)N(C)CC21CC1 [Example 36, 2′-(5-Fluoro-2-((5-(2-methyl-2,7-diazaspiro[3.5]nonan-7-yl)pyridin-2-yl)amino)pyrimidin-4-yl)-3′,5′-dimethyl-5′,6′-dihydro-4′H-spiro[cyclopropane-1,7′-thieno[3,2-c]pyridin]-4′-one]	≤ 20	20 to 200	≤ 20	
CN1CC2(CCCC2)c2sc(-c3nc(Nc4ccc(N5CCN6CCC5CC6)cn4)ncc3F)cc2C1=O [Example 64, 2-[2-[[5-(1,4-Diazabicyclo[3.2.2]nonan-4-yl)pyridin-2-yl]amino]-5-fluoropyrimidin-4-yl]-5-methylspiro[6H-thieno[3,2-c]pyridine-7,1′-cyclopentane]-4-one]		20 to 200	≤ 20	
Cc1c(-c2nc(Nc3ccc(C4CCN(C(C)C)CC4)nn3)ncc2F)sc2c1C(=O)N(C)CC21CC1 [Example 83, 2′-(5-Fluoro-2-((6-(1-isopropylpiperidin-4-yl)pyridazin-3-yl)amino)pyrimidin-4-yl)-3′,5′-dimethyl-5′,6′-dihydro-4′H-spiro[cyclopropane-1,7′-thieno[3,2-c]pyridin]-4′-one]		20 to 200	≤ 20	
